Measured values as given in US4042695A, “Thiaxanthene derivatives, compositions thereof and methods of treating therewith” (priority 1972, dated 1977).
Where two headings read alike, the source gives them in different places.

Columns and labels:
[1] = Pharmacological tests (test not specified); conditions: in vivo; listed as Example 12 alpha-isomer
rats = experiment: Antagonism of amphetamine-induced stereotyped behaviour in rats; format: in vivo; conditions: oral; for ED50: Rattus norvegicus
Method: The modification used by us was as follows:
The animals were then placed in individual cages. […] The absence of stereotypy was interpreted as a drug effect. ED50 values for protection against stereotypy were determined. All compounds were tested at a minimum of three dose levels using 10 rats per dose, and the observer was kept unaware of the identity of the groups until after the experiment.

[2] = system: adult purebred Beagle dogs; experiment: Apomorphine antagonism in dogs; format: in vivo; conditions: ordinary doses, prolonged treatment

OCCC1CCN(CCC=C2c3ccc(F)cc3Sc3ccc(C(F)(F)F)cc32)CC1 [Substance 13, alpha-isomer of 2-trifluoromethyl-6-fluoro-9-(3-(4-(2-hydroxyethyl)-1-piperidyl)propylidene)-thiaxanthene]
pharmacological activity of the isomer (in words) [1]: pharmacologically active | ED50 (rats; 24 hours after administration, read-out: ED50 for protection against stereotypy, peak effect (24 hours)): 0.04 mg/kg | ED50 (rats; 48 h, read-out: ED50 for protection against stereotypy, 48 h): 0.2 mg/kg | ED50 (rats; 72 h, read-out: ED50 for protection against stereotypy, 72 h): 0.9 mg/kg | ED50 (rats; 96 h, read-out: ED50 for protection against stereotypy, 96 h): 2.3 mg/kg | time of peak effect, amphetamine antagonism (rats): 24 h | amphetamine antagonistic effect 4 days after administration (in words) (rats; 4 days): rather weak | feed intake and survival [2]: did not take feed to a sufficient degree and, accordingly tended to die by starvation
